Patent US20100137300A1, “Indolizine Acetic Acid Derivatives as CRTH2 Antagonists” (priority 2007, published 2010)

Molecular target: T1, CRTH2 receptor (Homo sapiens, UniProt Q9Y5Y4)
T1 construct: expressed in transfected cells; host or cells: Human embryonic kidney (HEK) cells, membranes
T1 sequence (Q9Y5Y4 1-395): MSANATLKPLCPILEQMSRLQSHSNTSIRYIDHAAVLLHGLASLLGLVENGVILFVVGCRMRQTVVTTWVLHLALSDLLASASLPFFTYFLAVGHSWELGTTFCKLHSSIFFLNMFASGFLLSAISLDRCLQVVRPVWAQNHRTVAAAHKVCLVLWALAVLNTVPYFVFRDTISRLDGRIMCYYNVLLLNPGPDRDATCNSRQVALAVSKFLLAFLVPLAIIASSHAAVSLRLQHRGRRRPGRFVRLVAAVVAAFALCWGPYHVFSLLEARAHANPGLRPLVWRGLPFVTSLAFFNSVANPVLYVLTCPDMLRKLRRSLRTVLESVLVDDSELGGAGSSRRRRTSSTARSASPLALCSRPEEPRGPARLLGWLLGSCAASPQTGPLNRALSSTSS
Assay: CRTH2 radioligand binding assay ([3H]-PGD2 displacement)
Details: HEK cell membranes expressing the CRTH2 receptor, 1 nM [3H]-PGD2
Procedure: The receptor binding assay is performed in a final volume of 200 μL binding buffer [10 mM BES (pH 7.4), 1 mM EDTA, 10 mM manganese chloride, 0.01% BSA] and 1 nM [^3H]-PGD2 (Amersham Biosciences UK Ltd). Ligands are added in assay buffer containing a constant amount of DMSO (1% by volume). Total binding is determined using 1% by volume of DMSO in assay buffer and non-specific binding is determined using 10 μM of unlabeled PGD2 (Sigma). Human embryonic kidney (HEK) cell membranes (3.5 μg) expressing the CRTH2 receptor are incubated with 1.5 mg wheatgerm agglutinin SPA beads and 1 nM [^3H]-PGD2 (Amersham Biosciences UK Ltd) and the mixture incubated for 3 hours at room temperature. Bound [^3H]-PGD2 is detected using a Microbeta TRILUX liquid scintillation counter (Perkin Elmer). Compound IC50 value is determined using a 6-point dose response curve in duplicate with a semi-log compound dilution series. IC50 calculations are performed using Excel and XLfit (Microsoft), and this value is used to determine a Ki value for the test compound using the Cheng-Prusoff equation.

IC50 | SMILES
58 nM | Cc1c(Cc2ccc(S(=O)(=O)N3CCOCC3)cc2)c2cc(C#N)ccn2c1CC(=O)O [Example 1, {7-cyano-2-methyl-1-[4-(morpholine-4-sulfonyl)benzyl]indolizin-3-yl}acetic acid]
19 nM | Cc1c(Cc2ccc3cc(F)ccc3n2)c2cc(C#N)ccn2c1CC(=O)O [Example 6, [7-cyano-1-(6-fluoroquinolin-2-ylmethyl)-2-methylindolizin-3-yl]acetic acid]
